Where two headings read alike, the source gives them in different places.
Assays:
in vivo [1] = assay type: in vivo; details: rat, in vivo, po; read-out: LD 50 (Litchfield and Wilcoxon)
Rat = test: in vivo; assay type: in vivo
in vivo [2] = details: rat, in vivo, po, 200 mg/kg/day; read-out: % of dead animals
Source text: (§1) Five days subacute toxicity in rats per os
(§2) Animals: 5 female rats for each group, average body weight: 150g.

rats [3] = test: in vivo; details: 5 days, rats, per os
Source text: as §1, §2

rats [4] = assay type: in vivo, rat; details: single oral administration, male rats; for Average number of lesions per animal: 100 mg/kg (maximum tested dose)
Protocol: The test was modified by increasing the fast period to 70 hours and giving the total dose of substance in one single oral administration.
Animals: 10 male rats for each group, average body weight: 150g.

pyresis = test: Antipyretic activity according to Burn et al.; assay type: in vivo, rat; details: for Reduction of the pyresis at hour 4: female rats
Source text: Animals: 6 female rats for each group, average body weight 200 g.

phenylquinone writhes = test: Analgesic activity according to Hendershot et al., phenylquinone writhes, modified; assay type: in vivo, mouse; details: for inhibition in vivo at 50 mg/kg / inhibition in vivo at 100 mg/kg: Mus musculus, 2 h before phenylquinone, 5-15 min, female mice
Protocol: Analgesic activity according to HENDERSHOT et al., Jour. Pharm.
The test was modified by numbering the writhes only along the time interval from 5 to 15 minutes since the injection of phenylquinone. The injection was made 2 hours after the oral administration of the compound to be tested.
Animals: 8 female mice for each group, average body weight: 25g

carrageenin paw edema = test: Antiinflammatory activity according to Winter et al., carrageenin paw edema, modified; assay type: in vivo, rat; details: for inhibition in vivo at 50 mg/kg / inhibition in vivo at 100 mg/kg: Rattus norvegicus, po, 4 h, female rats, read-out: % inhibition of the edema after 4 hours
Protocol: Antiinflammatory activity according to WINTER et al., Proc. Soc. Exp. Biol. Med.; 111, 544; 1962.
The test was modified in that the injection of carrageenin and the administration of the compound by gastric gavage were carried out simultaneously and the paw edema was measured at the plethysmograph after 4 hours.
Animals: 6 female rats for each group, average body weight: 150g

Mouse = details: per os
in vivo [5] = details: mouse, po
[6] = 50 mg/g (so in the source) per os
[7] = 100 mg/g (so in the source) per os

CCN(CC)CCNC(=O)c1nn(-c2ccccc2)c2c1N(C)S(=O)(=O)c1ccccc1-2 [Compound I-1, 2-methyl-5-phenyl-1,2-benzothiazino[3,4-d]pyrazole-3-yl-carboxylic acid, 2-(N,N-diethylamino)ethylamide,S,S-dioxide]
LD50 (in vivo [1]): 2700 mg/kg
LD 50, relative ratio to piroxicam (Rat; in vivo): 10.0
mortality at 120 h (in vivo [2]): 0%
Subacute toxicity, relative ratio to naproxen (rats [3]): 4
Subacute toxicity, relative ratio to piroxicam (rats [3]): 10
Average number of lesions per animal (rats [4]): 0
Gastrolesive effect, relative potency to naproxen (rats [4]): > 20
Gastrolesive effect, relative potency to piroxicam (rats [4]): 100
Antipyretic relative potency to naproxen (pyresis; [6]): 0.8
Antipyretic relative potency to piroxicam (pyresis; [6]): 1.0
Reduction of the pyresis at hour 4 (pyresis; [6]): 0.86 °C
Antipyretic relative potency to naproxen (pyresis; [7]): 1.3
Antipyretic relative potency to piroxicam (pyresis; [7]): 1.6
Reduction of the pyresis at hour 4 (pyresis; [7]): 1.44 °C
Analgesic relative potency to naproxen (phenylquinone writhes; 50 mg/kg oral): 1.3
Analgesic relative potency to piroxicam (phenylquinone writhes; 50 mg/kg oral): 0.9
Analgesic relative potency to naproxen (phenylquinone writhes; 100 mg/kg oral): 2.2
Analgesic relative potency to piroxicam (phenylquinone writhes; 100 mg/kg oral): 1.6
inhibition in vivo at 50 mg/kg (phenylquinone writhes; 50 mg/kg oral): 43%
inhibition in vivo at 100 mg/kg (phenylquinone writhes; 100 mg/kg oral): 72%
Antiinflammatory relative potency to naproxen (carrageenin paw edema; 50 mg/kg per os): 0.5
Antiinflammatory relative potency to piroxicam (carrageenin paw edema; 50 mg/kg per os): 0.2
Antiinflammatory relative potency to naproxen (carrageenin paw edema; 100 mg/kg per os): 0.8
Antiinflammatory relative potency to piroxicam (carrageenin paw edema; 100 mg/kg per os): 0.4
inhibition in vivo at 50 mg/kg (carrageenin paw edema; 50 mg/kg per os): 10%
inhibition in vivo at 100 mg/kg (carrageenin paw edema; 100 mg/kg per os): 16%
LD 50, relative ratio to naproxen (Mouse): 2.3
LD 50, relative ratio to piroxicam (Mouse): 7.9
LD50 (in vivo [5]): 2850 mg/kg

CN(C)CCCNC(=O)c1nn(-c2ccccc2)c2c1N(C)S(=O)(=O)c1ccccc1-2 [Compound I-2]
LD50 (in vivo [1]): 2400 mg/kg
LD 50, relative ratio to naproxen (Rat; per os): 4.4
LD 50, relative ratio to piroxicam (Rat; per os): 8.9
mortality at 120 h (in vivo [2]): 0%
Subacute toxicity, relative ratio to naproxen (rats [3]): 4
Subacute toxicity, relative ratio to piroxicam (rats [3]): 10
Average number of lesions per animal (rats [4]): 0
Gastrolesive effect, relative potency to naproxen (rats [4]): > 20
Gastrolesive effect, relative potency to piroxicam (rats [4]): 100
Antipyretic relative potency to naproxen (pyresis; [6]): 0.5
Antipyretic relative potency to piroxicam (pyresis; [6]): 0.7
Reduction of the pyresis at hour 4 (pyresis; [6]): 0.58 °C
Antipyretic relative potency to naproxen (pyresis; [7]): 0.8
Antipyretic relative potency to piroxicam (pyresis; [7]): 1.0
Reduction of the pyresis at hour 4 (pyresis; [7]): 0.89 °C
Analgesic relative potency to naproxen (phenylquinone writhes; 50 mg/kg oral): 2.1
Analgesic relative potency to piroxicam (phenylquinone writhes; 50 mg/kg oral): 1.5
Analgesic relative potency to naproxen (phenylquinone writhes; 100 mg/kg oral): 2.8
Analgesic relative potency to piroxicam (phenylquinone writhes; 100 mg/kg oral): 2.0
inhibition in vivo at 50 mg/kg (phenylquinone writhes; 50 mg/kg oral): 68%
inhibition in vivo at 100 mg/kg (phenylquinone writhes; 100 mg/kg oral): 92%
Antiinflammatory relative potency to naproxen (carrageenin paw edema; 50 mg/kg per os): 0.6
Antiinflammatory relative potency to piroxicam (carrageenin paw edema; 50 mg/kg per os): 0.3
Antiinflammatory relative potency to naproxen (carrageenin paw edema; 100 mg/kg per os): 0.8
Antiinflammatory relative potency to piroxicam (carrageenin paw edema; 100 mg/kg per os): 0.4
inhibition in vivo at 50 mg/kg (carrageenin paw edema; 50 mg/kg per os): 12%
inhibition in vivo at 100 mg/kg (carrageenin paw edema; 100 mg/kg per os): 17%
LD 50, relative ratio to naproxen (Mouse): 1.1
LD 50, relative ratio to piroxicam (Mouse): 3.8
LD50 (in vivo [5]): 1380 mg/kg

CN1c2c(C(=O)NCCCN3CCOCC3)nn(-c3ccccc3)c2-c2ccccc2S1(=O)=O [Compound I-3]
LD50 (in vivo [1]): 1080 mg/kg
LD 50, relative ratio to piroxicam (Rat; in vivo): 4.0
mortality at 120 h (in vivo [2]): 0%
Subacute toxicity, relative ratio to naproxen (rats [3]): 4
Subacute toxicity, relative ratio to piroxicam (rats [3]): 10
Average number of lesions per animal (rats [4]): 0
Gastrolesive effect, relative potency to naproxen (rats [4]): > 20
Gastrolesive effect, relative potency to piroxicam (rats [4]): 100
Antipyretic relative potency to naproxen (pyresis; [6]): 0.7
Antipyretic relative potency to piroxicam (pyresis; [6]): 0.9
Reduction of the pyresis at hour 4 (pyresis; [6]): 0.77 °C
Antipyretic relative potency to naproxen (pyresis; [7]): 1.0
Antipyretic relative potency to piroxicam (pyresis; [7]): 1.2
Reduction of the pyresis at hour 4 (pyresis; [7]): 1.08 °C
Analgesic relative potency to naproxen (phenylquinone writhes; 50 mg/kg oral): 1.0
Analgesic relative potency to piroxicam (phenylquinone writhes; 50 mg/kg oral): 0.7
Analgesic relative potency to naproxen (phenylquinone writhes; 100 mg/kg oral): 1.8
Analgesic relative potency to piroxicam (phenylquinone writhes; 100 mg/kg oral): 1.3
inhibition in vivo at 50 mg/kg (phenylquinone writhes; 50 mg/kg oral): 33%
inhibition in vivo at 100 mg/kg (phenylquinone writhes; 100 mg/kg oral): 60%
Antiinflammatory relative potency to naproxen (carrageenin paw edema; 50 mg/kg per os): 0.4
Antiinflammatory relative potency to piroxicam (carrageenin paw edema; 50 mg/kg per os): 0.2
Antiinflammatory relative potency to naproxen (carrageenin paw edema; 100 mg/kg per os): 0.7
Antiinflammatory relative potency to piroxicam (carrageenin paw edema; 100 mg/kg per os): 0.3
inhibition in vivo at 50 mg/kg (carrageenin paw edema; 50 mg/kg per os): 9%
inhibition in vivo at 100 mg/kg (carrageenin paw edema; 100 mg/kg per os): 15%
LD 50, relative ratio to naproxen (Mouse): 1.8
LD 50, relative ratio to piroxicam (Mouse): 6.1
LD50 (in vivo [5]): 2200 mg/kg

— patent US4378358A, “Benzothiazinopyrazoles having pharmacological activity” (Mediolanum Farmaceutici s.r.l., priority 1980, dated 1983)
